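These data come from cells grown in 96-well plates and exposed to compound for 48 hours at five concentrations. GI50: concentration for 50% inhibition of growth. TGI marks complete inhibition of growth.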
Key:
Assay in all cases: inhibition of tumour cell growth, NCI panel, 48 h
HL-60(TB) leukemia = test system: HL-60(TB) leukemia
EKVX NSCLC = test system: EKVX NSCLC
OVCAR-8 ovarian = test system: OVCAR-8 ovarian
MDA-MB-231 breast = test system: MDA-MB-231 breast
MOLT-4 leukemia = test system: MOLT-4 leukemia
MDA-MB-435 = test system: MDA-MB-435
KM12 colon = test system: KM12 colon
SK-MEL-28 melanoma = test system: SK-MEL-28 melanoma
TK-10 renal = test system: TK-10 renal
BT-549 breast = test system: BT-549 breast
SNB-75 CNS = test system: SNB-75 CNS
COLO 205 colon = test system: COLO 205 colon
IGROV1 ovarian = test system: IGROV1 ovarian
OVCAR-5 ovarian = test system: OVCAR-5 ovarian
HOP-92 NSCLC = test system: HOP-92 NSCLC
786-0 renal = test system: 786-0 renal
RPMI-8226 leukemia = test system: RPMI-8226 leukemia
HCC-2998 colon = test system: HCC-2998 colon
OVCAR-4 ovarian = test system: OVCAR-4 ovarian
LOX IMVI melanoma = test system: LOX IMVI melanoma
NCI/ADR-RES ovarian = test system: NCI/ADR-RES ovarian
MALME-3M melanoma = test system: MALME-3M melanoma
SR leukemia = test system: SR leukemia
SK-MEL-2 melanoma = test system: SK-MEL-2 melanoma
HS 578T breast = test system: HS 578T breast
SK-MEL-5 melanoma = test system: SK-MEL-5 melanoma
SK-OV-3 ovarian = test system: SK-OV-3 ovarian
CAKI-1 renal = test system: CAKI-1 renal
UO-31 renal = test system: UO-31 renal
UACC-62 melanoma = test system: UACC-62 melanoma
NCI-H23 lung = test system: NCI-H23 lung
UACC-257 melanoma = test system: UACC-257 melanoma
SF-539 CNS = test system: SF-539 CNS
HCT-116 colon = test system: HCT-116 colon
PC-3 prostate = test system: PC-3 prostate
SNB-19 CNS = test system: SNB-19 CNS
SW-620 colon = test system: SW-620 colon
ACHN renal = test system: ACHN renal
SN12C renal = test system: SN12C renal
U251 CNS = test system: U251 CNS
NCI-H460 lung = test system: NCI-H460 lung
T-47D breast = test system: T-47D breast
OVCAR-3 ovarian = test system: OVCAR-3 ovarian
SF-268 CNS = test system: SF-268 CNS
HCT-15 colon = test system: HCT-15 colon
M14 melanoma = test system: M14 melanoma
HT29 colon = test system: HT29 colon
A549 NSCLC = test system: A549 NSCLC
SF-295 CNS = test system: SF-295 CNS
DU-145 prostate = test system: DU-145 prostate
HOP-62 NSCLC = test system: HOP-62 NSCLC
NCI-H226 lung = test system: NCI-H226 lung
NCI-H522 lung = test system: NCI-H522 lung
A498 renal = test system: A498 renal
MCF7 breast = test system: MCF7 breast
K-562 leukemia = test system: K-562 leukemia
CCRF-CEM leukemia = test system: CCRF-CEM leukemia

Compound `CCN(CC)CCOc1ccc(C(=C(c2ccccc2)C2CCCC2)c2ccc(OCCN(CC)CC)cc2)cc1` has a GI50 (HL-60(TB) leukemia) of 3.13 µM, a TGI (HL-60(TB) leukemia) of 7.14 µM and a GI50 (EKVX NSCLC) of 7.53 µM. The TGI (EKVX NSCLC) was greater than 16.3 µM, the GI50 (OVCAR-8 ovarian) was 6.88 µM and the TGI (OVCAR-8 ovarian) was greater than 16.3 µM. It also gave a GI50 (MDA-MB-231 breast) of 4.57 µM, a TGI (MDA-MB-231 breast) of 15.6 µM and a GI50 (MOLT-4 leukemia) of 4.47 µM. For the same compound, the TGI (MOLT-4 leukemia) was 13.3 µM, the GI50 (MDA-MB-435) was 3.19 µM and the TGI (MDA-MB-435) was 7.45 µM. The GI50 (KM12 colon) was 2.81 µM, the TGI (KM12 colon) was 5.28 µM and the GI50 (SK-MEL-28 melanoma) was 6.5 µM. It also gave a TGI (SK-MEL-28 melanoma) greater than 16.3 µM, a GI50 (TK-10 renal) greater than 16.3 µM and a TGI (TK-10 renal) greater than 16.3 µM. For the same compound, the GI50 (BT-549 breast) was 2.27 µM, the TGI (BT-549 breast) was 6.04 µM and the GI50 (SNB-75 CNS) was 4.58 µM. It also gave a TGI (SNB-75 CNS) greater than 16.3 µM, a GI50 (COLO 205 colon) of 3.2 µM and a TGI (COLO 205 colon) of 7.63 µM. The GI50 (IGROV1 ovarian) was 3.49 µM, the TGI (IGROV1 ovarian) was 7.66 µM and the GI50 (OVCAR-5 ovarian) was 6.13 µM. It also gave a TGI (OVCAR-5 ovarian) greater than 16.3 µM, a GI50 (HOP-92 NSCLC) of 1.33 µM and a TGI (HOP-92 NSCLC) of 6.89 µM. The GI50 (786-0 renal) was 12.2 µM, the TGI (786-0 renal) was greater than 16.3 µM and the GI50 (RPMI-8226 leukemia) was 2.77 µM. It also gave a TGI (RPMI-8226 leukemia) of 10.7 µM, a GI50 (HCC-2998 colon) of 4.62 µM and a TGI (HCC-2998 colon) greater than 16.3 µM. It also gave a GI50 (OVCAR-4 ovarian) of 5.35 µM, a TGI (OVCAR-4 ovarian) greater than 16.3 µM and a GI50 (LOX IMVI melanoma) of 4.45 µM. It also gave a TGI (LOX IMVI melanoma) of 14.7 µM, a GI50 (NCI/ADR-RES ovarian) greater than 16.3 µM and a TGI (NCI/ADR-RES ovarian) greater than 16.3 µM. The GI50 (MALME-3M melanoma) was 3.57 µM, the TGI (MALME-3M melanoma) was 10.3 µM and the GI50 (SR leukemia) was 3.29 µM. The TGI (SR leukemia) was 7.88 µM, the GI50 (SK-MEL-2 melanoma) was 5.49 µM and the TGI (SK-MEL-2 melanoma) was greater than 16.3 µM. The GI50 (HS 578T breast) was 3.64 µM, the TGI (HS 578T breast) was 12.8 µM and the GI50 (SK-MEL-5 melanoma) was 5.31 µM. For the same compound, the TGI (SK-MEL-5 melanoma) was greater than 16.3 µM, the GI50 (SK-OV-3 ovarian) was 7.95 µM and the TGI (SK-OV-3 ovarian) was greater than 16.3 µM. For the same compound, the GI50 (CAKI-1 renal) was greater than 16.3 µM, the TGI (CAKI-1 renal) was greater than 16.3 µM and the GI50 (UO-31 renal) was greater than 16.3 µM. For the same compound, the TGI (UO-31 renal) was greater than 16.3 µM, the GI50 (UACC-62 melanoma) was 3.92 µM and the TGI (UACC-62 melanoma) was 11.1 µM. It also gave a GI50 (NCI-H23 lung) of 5.64 µM, a TGI (NCI-H23 lung) greater than 16.3 µM and a GI50 (UACC-257 melanoma) of 5.09 µM. The TGI (UACC-257 melanoma) was greater than 16.3 µM, the GI50 (SF-539 CNS) was 5.51 µM and the TGI (SF-539 CNS) was greater than 16.3 µM. The GI50 (HCT-116 colon) was 4.89 µM, the TGI (HCT-116 colon) was greater than 16.3 µM and the GI50 (PC-3 prostate) was 6.16 µM. For the same compound, the TGI (PC-3 prostate) was greater than 16.3 µM, the GI50 (SNB-19 CNS) was 4.96 µM and the TGI (SNB-19 CNS) was greater than 16.3 µM. For the same compound, the GI50 (SW-620 colon) was 5.05 µM, the TGI (SW-620 colon) was greater than 16.3 µM and the GI50 (ACHN renal) was greater than 16.3 µM. For the same compound, the TGI (ACHN renal) was greater than 16.3 µM, the GI50 (SN12C renal) was 5.28 µM and the TGI (SN12C renal) was greater than 16.3 µM. For the same compound, the GI50 (U251 CNS) was 3.85 µM, the TGI (U251 CNS) was 12.5 µM and the GI50 (NCI-H460 lung) was 4.84 µM. For the same compound, the TGI (NCI-H460 lung) was greater than 16.3 µM, the GI50 (T-47D breast) was 5.6 µM and the TGI (T-47D breast) was greater than 16.3 µM. It also gave a GI50 (OVCAR-3 ovarian) of 3.07 µM, a TGI (OVCAR-3 ovarian) of 6.54 µM and a GI50 (SF-268 CNS) of 5.35 µM. The TGI (SF-268 CNS) was greater than 16.3 µM, the GI50 (HCT-15 colon) was greater than 16.3 µM and the TGI (HCT-15 colon) was greater than 16.3 µM. The GI50 (M14 melanoma) was 7.22 µM, the TGI (M14 melanoma) was greater than 16.3 µM and the GI50 (HT29 colon) was 3.82 µM. For the same compound, the TGI (HT29 colon) was 10.4 µM, the GI50 (A549 NSCLC) was 6.46 µM and the TGI (A549 NSCLC) was greater than 16.3 µM. The GI50 (SF-295 CNS) was 5.77 µM, the TGI (SF-295 CNS) was greater than 16.3 µM and the GI50 (DU-145 prostate) was 7.97 µM. It also gave a TGI (DU-145 prostate) greater than 16.3 µM, a GI50 (HOP-62 NSCLC) of 9.41 µM and a TGI (HOP-62 NSCLC) greater than 16.3 µM. The GI50 (NCI-H226 lung) was 6.58 µM, the TGI (NCI-H226 lung) was greater than 16.3 µM and the GI50 (NCI-H522 lung) was 6.3 µM. The TGI (NCI-H522 lung) was greater than 16.3 µM, the GI50 (A498 renal) was greater than 16.3 µM and the TGI (A498 renal) was greater than 16.3 µM. It also gave a GI50 (MCF7 breast) of 2.53 µM, a TGI (MCF7 breast) of 5.01 µM and a GI50 (K-562 leukemia) of 5.57 µM. For the same compound, the TGI (K-562 leukemia) was greater than 16.3 µM, the GI50 (CCRF-CEM leukemia) was 4.52 µM and the TGI (CCRF-CEM leukemia) was greater than 16.3 µM.

From PubChem BioAssay (NCI)
